Data set [1] concerns Dhcr7 / cholesterol biosynthesis in Neuro2a cells. As to the kind of experiment: Cellular sterol levels in Neuro2a cells after exposure. The note with it: 100 nM; for cellular accumulation of 7-DHC, less than the accumulation caused by C10-BAC: 72 hours; for cellular desmosterol and cholesterol: 72 hour exposure, serum-free media, relative to Control. It counts as cell-based, Mouse.

Data set [2] in a line: Metabolic stability of BACs in HLM. The note with it: BAC 2 μM incubated separately, HLM 1 mg/mL, NADPH-dependent consumption. It counts as in vitro ADME, human.
The target in another data set is recombinant CYP2D6 (Homo sapiens, UniProt P10635). As to the kind of experiment: BAC consumption by human recombinant CYP2D6. It counts as in vitro ADME. The note with it: 2 μM substrate, 50 nM P450, 30-minute incubation, NADPH.
Sequence of recombinant CYP2D6 (P10635 whole entry): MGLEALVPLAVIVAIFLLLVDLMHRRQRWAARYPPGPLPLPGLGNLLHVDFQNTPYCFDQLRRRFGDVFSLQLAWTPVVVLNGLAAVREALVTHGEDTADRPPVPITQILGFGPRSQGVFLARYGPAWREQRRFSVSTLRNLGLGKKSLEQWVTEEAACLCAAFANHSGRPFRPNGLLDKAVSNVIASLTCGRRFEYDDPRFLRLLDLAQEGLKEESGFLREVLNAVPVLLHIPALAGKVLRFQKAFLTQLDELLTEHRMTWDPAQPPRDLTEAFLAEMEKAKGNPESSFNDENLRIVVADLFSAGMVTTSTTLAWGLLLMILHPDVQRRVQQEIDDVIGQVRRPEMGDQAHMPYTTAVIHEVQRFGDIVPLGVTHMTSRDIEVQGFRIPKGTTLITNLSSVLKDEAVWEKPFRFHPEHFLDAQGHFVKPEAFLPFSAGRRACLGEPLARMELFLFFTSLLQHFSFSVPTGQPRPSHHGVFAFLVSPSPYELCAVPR
The target of a further data set is recombinant CYP3A4 (Homo sapiens, UniProt P08684). The data set is described as follows: BAC consumption by human recombinant CYP3A4. It counts as in vitro ADME. The note with it: 2 μM substrate, 50 nM P450, 30-minute incubation, NADPH.
Sequence of recombinant CYP3A4 (P08684 whole entry): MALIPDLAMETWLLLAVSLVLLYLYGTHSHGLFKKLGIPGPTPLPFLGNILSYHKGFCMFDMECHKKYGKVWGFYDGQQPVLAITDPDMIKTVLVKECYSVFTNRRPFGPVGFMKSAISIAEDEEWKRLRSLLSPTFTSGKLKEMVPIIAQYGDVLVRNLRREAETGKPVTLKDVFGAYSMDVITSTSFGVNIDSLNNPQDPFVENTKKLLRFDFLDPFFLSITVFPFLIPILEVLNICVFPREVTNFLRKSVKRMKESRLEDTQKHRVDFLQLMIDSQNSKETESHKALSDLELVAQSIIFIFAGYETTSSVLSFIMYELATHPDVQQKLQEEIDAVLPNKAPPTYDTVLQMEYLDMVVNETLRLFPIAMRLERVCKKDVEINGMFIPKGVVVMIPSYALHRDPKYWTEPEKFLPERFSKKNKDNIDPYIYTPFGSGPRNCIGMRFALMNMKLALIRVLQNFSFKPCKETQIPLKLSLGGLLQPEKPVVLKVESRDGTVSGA
In another data set the target is T1, recombinant CYP4F12 (Homo sapiens, UniProt Q9HCS2).
T1 sequence (Q9HCS2 1-524): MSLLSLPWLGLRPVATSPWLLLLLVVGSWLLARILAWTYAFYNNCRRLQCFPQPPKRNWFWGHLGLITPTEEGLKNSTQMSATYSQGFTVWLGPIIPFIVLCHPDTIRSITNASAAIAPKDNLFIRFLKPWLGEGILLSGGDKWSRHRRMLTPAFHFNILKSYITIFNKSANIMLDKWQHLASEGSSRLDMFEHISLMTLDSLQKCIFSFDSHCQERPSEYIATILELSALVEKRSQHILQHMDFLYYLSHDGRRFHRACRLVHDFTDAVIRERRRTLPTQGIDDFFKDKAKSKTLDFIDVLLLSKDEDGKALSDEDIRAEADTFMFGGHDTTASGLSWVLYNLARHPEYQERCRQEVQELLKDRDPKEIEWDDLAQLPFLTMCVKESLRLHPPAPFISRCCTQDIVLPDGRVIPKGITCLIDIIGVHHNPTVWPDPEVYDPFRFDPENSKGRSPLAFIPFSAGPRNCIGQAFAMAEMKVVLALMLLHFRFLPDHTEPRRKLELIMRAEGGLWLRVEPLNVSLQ
As to the kind of experiment: BAC consumption by human recombinant CYP4F12. The note with it: for substrate consumed by recombinant CYP4F12: 50 nM P450, 30-minute incubation, NADPH. It counts as in vitro ADME.

Data set [3] in a line: Kinetic characterization of C10-BAC hydroxylation in HLM. The note with it: HLM 0.04 mg/mL, NADPH, 0.1 to 128 μM C10-BAC, initial rates. It counts as in vitro ADME, human.
Data set [4] deals with 3β-hydroxysterol-Δ^7-reductase (DHCR7). The note with it: at nM concentrations; cited from earlier work.
The nature of data set [5]: Time-courses of C10-BAC depletion and metabolite formation in HLM. The note with it: HLM 0.2 mg/mL.
A further data set concerns the target T2, recombinant CYP2A6 (Homo sapiens, UniProt P11509).
T2 sequence (P11509 1-494): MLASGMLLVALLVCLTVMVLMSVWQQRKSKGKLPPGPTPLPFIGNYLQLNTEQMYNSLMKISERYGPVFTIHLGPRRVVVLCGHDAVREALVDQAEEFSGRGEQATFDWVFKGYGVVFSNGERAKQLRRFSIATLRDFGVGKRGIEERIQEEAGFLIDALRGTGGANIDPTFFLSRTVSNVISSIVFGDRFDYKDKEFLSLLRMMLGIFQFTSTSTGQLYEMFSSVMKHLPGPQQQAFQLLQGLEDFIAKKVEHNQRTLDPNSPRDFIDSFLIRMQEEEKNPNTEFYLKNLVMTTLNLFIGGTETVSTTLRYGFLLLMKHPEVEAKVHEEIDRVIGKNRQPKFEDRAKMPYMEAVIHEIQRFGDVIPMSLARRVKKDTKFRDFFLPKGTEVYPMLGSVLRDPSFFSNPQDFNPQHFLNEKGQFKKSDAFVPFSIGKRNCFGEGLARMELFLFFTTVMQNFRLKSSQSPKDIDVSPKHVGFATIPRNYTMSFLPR
The data set is described as follows: BAC consumption by human recombinant CYP2A6. It counts as in vitro ADME. The note with it: 2 μM substrate, 50 nM P450, 30-minute incubation, NADPH.

Another data set deals with T3, recombinant CYP4F2 (Homo sapiens, UniProt P78329).
T3 sequence (P78329 5-520): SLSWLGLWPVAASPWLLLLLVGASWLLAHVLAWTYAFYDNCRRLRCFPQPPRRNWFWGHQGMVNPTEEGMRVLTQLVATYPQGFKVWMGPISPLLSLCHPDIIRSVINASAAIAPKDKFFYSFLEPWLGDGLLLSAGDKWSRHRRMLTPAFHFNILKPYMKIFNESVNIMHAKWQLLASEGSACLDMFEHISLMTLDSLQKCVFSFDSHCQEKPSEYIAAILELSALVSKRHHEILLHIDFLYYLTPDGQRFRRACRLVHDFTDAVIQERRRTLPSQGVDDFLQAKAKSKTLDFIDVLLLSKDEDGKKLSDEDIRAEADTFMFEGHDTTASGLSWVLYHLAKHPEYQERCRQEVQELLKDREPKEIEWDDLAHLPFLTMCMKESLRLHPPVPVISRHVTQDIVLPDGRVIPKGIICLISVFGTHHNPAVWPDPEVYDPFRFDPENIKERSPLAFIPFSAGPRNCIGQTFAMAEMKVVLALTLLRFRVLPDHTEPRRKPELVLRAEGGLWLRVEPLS
As to the kind of experiment: BAC consumption by human recombinant CYP4F2. It counts as in vitro ADME. The note with it: for effective inhibitor of recombinant CYP4F2 (C16-BAC consumption): inhibitor 1 μM, C16-BAC 2 μM, 50 nM P450, 20 minutes.

In the case of `CC(O)CCCCCCCC[N+](C)(C)Cc1ccccc1.[Cl-]` (stereo not shown) [(ω−1)-hydroxy-C10-BAC], in data set [1], the “cellular accumulation of 7-DHC, less than the accumulation caused by C10-BAC” value is on record as “over 2 orders of magnitude”.
Regarding `Cl.Cl.Clc1ccccc1CNCC1CCC(CNCc2ccccc2Cl)CC1` (stereo not shown) [AY9944, reference compound], the “cellular desmosterol and cholesterol” value in data set [1] was “significant decreased level”.
One may read the Km as the concentration of substrate that gives half-maximal velocity. Turning to `CCCCCCCCCC[N+](C)(C)Cc1ccccc1.[Cl-]` [C10-BAC], the “apparent half-life in HLM” value in data set [2] was “approximately 1 minutes”. Besides, the “substrate consumed by recombinant CYP2D6” value at recombinant CYP2D6 is reported as “essentially all”. The “substrate consumed by recombinant CYP3A4” value at recombinant CYP3A4 is on record as 15%. Also, the “substrate consumed by recombinant CYP4F12” value on recombinant CYP4F12 (2 μM substrate) was “essentially all”. Moreover, in [3], the “Vmax of (ω−1)-hydroxylation” value is given as 126 pmol/min/mg and the “Vmax of ω-hydroxylation” value is listed as 380 pmol/min/mg. Also, in [3] (read-out: Km of (ω−1)-hydroxylation), the Michaelis-Menten constant (Km) was found to be 0.13 µM. The “cellular desmosterol and cholesterol” value in data set [1] is recorded as “significant decreased level”. In addition, the “inhibition of DHCR7 in the cholesterol biosynthesis pathway” value in data set [4] was “inhibit”. In addition, in data set [5] (680 nM initial substrate, NADPH, no inhibitor), the “C10-BAC concentration remaining at the 4-minute time point” value is given as 341 ± 7 nM.
For `CCCCCCCCCCCCCC[N+](C)(C)Cc1ccccc1.[Cl-]` [C14-BAC], the “apparent half-life in HLM” value in [2] is roughly 6 min.
As for `CCCCCCCCCCCCCCCC[N+](C)(C)Cc1ccccc1.[Cl-]` [C16-BAC], the “apparent half-life in HLM” value in [2] is roughly 15 min. At recombinant CYP2D6, the “substrate consumed by recombinant CYP2D6” value was 77%. Besides, the “substrate consumed by recombinant CYP4F12” value on recombinant CYP4F12 (2 μM substrate) was determined as 88%. Moreover, on recombinant CYP4F12 (2 μM substrate, 50 nM P450, 20 minute incubation, HET0016 1 μM, mean ± SD, n = 3), the “C16-BAC percent remaining with recombinant CYP4F12, HET0016 alone” value was 49% ± 6%. Also, at recombinant CYP4F12 (2 μM substrate, 50 nM P450, 20 minute incubation, no inhibitor, mean ± SD, n = 3), the “C16-BAC percent remaining with recombinant CYP4F12, no inhibitor” value is given as 26% ± 4%. Besides, the “substrate consumed by recombinant CYP2A6” value on recombinant CYP2A6 stood at 5%. In addition, the “substrate consumed by recombinant CYP4F2” value on recombinant CYP4F2 (2 μM substrate, 50 nM P450, 30-minute incubation, NADPH) is 45%.
For the molecule `CCCCc1ccc(N=CNO)c(C)c1` [HET0016], the “effective inhibitor of recombinant CYP4F2 (C16-BAC consumption)” value at recombinant CYP4F2 was “essentially complete inhibition”. In addition, in data set [5] (inhibitor 1 μM, C10-BAC 680 nM), the “effect on (ω−1)-ketone formation from C10-BAC in HLM” value is recorded as “suppressing”, the “effect on C10-BAC (ω−1)-hydroxylation / oxidation at the (ω−1)-position in HLM” value was “promoted”, the “effect on C10-BAC ω-hydroxylation (ω-hydroxy metabolite formation) in HLM” value is reported as “nearly complete inhibition” and the “effect on ω-carboxylic acid formation from C10-BAC in HLM” value is “nearly complete inhibition”.
`C=C[C@H]1C[N@@]2CC[C@H]1C[C@@H]2[C@@H](O)c1ccnc2ccc(OC)cc12` [quinidine]: the “inhibition of C16-BAC consumption by recombinant CYP4F12” value on recombinant CYP4F12 (inhibitor 1 μM alone, C16-BAC 2 μM, 50 nM P450, 20 minutes) is “did not inhibit”. The “effective inhibitor of recombinant CYP4F2 (C16-BAC consumption)” value at recombinant CYP4F2 is “not”. In data set [5] (inhibitor 1 μM, C10-BAC 680 nM), the “effect on C10-BAC (ω−1)-hydroxylation / oxidation at the (ω−1)-position in HLM” value is “primarily inhibitory”, the “effect on C10-BAC ω-hydroxylation (ω-hydroxy metabolite formation) in HLM” value was “did not inhibit” and the “effect on ω-carboxylic acid formation from C10-BAC in HLM” value is listed as “partial suppression”.
On to `C[N+](C)(CCCCCCCCCCO)Cc1ccccc1.[Cl-]` [ω-hydroxy-C10-BAC], for which the “cellular accumulation of 7-DHC, less than the accumulation caused by C10-BAC” value in [1] was “over 2 orders of magnitude”.

The values above are taken from article PMC7269367 (Chemical research in toxicology, 2019).
